Our source for the melting point values is a melting point compilation (Tetko et al.; mined from patent text by program, amines drawn as free bases though some values may be those of a salt).

Usually melting point stands for the temperature, or range, at which the solid turns liquid.

Molecule `O=C1CCC(N2C(=O)c3cccc(OCc4ccc(CN5CCSCC5)cc4)c3C2=O)C(=O)N1` (stereo not drawn) displayed a melting point of 221 to 223 °C.
Next, `CCCCS(=O)(=O)Nc1ccc(I)cc1`: 80 to 81 °C; `CCc1cc(C)cc(CC)c1C1C(=O)N2CCOCCN2C1=O`: 193 to 194 °C; `C=CCOC(=O)c1c(C)nc2c(cnn2CCC(=C)C)c1N`: 68 to 69 °C.
In turn, `COc1cc(CN2CCCC2)ccc1OCC(=O)Nc1ccc(-c2ccc(Cl)cc2)cc1` showed a melting point of 89 to 91 °C.
Next, `C[C@H](NC(=O)OC(C)(C)C)c1nc2c(C(F)(F)F)cccc2c(=O)o1`: 174 °C; `N#Cc1ccc2oc(CCc3ccc(C(=O)On4nnc5ccccc54)cc3)cc2c1`: 171 to 172 °C; `Cc1cc(C#N)sc1-c1ccc2c(c1)C(C)(C)C(=O)N2`: 192 to 193 °C.
For `CNC(=O)Oc1ccc(NS(C)(=O)=O)c(C)c1` the value was 167 to 169 °C.
Take `C=COCCCCOC(=O)CCCCCCCCCCC(=O)OCCCCOC=C`: the melting point fell in the range of 42 to 43 °C.
For `CCN(C)C(=S)Nc1cc(Cl)c(OCCC[Si](C)(C)C)cc1C` the value was 71 to 72 °C; for `COC(=O)C=Cc1ccc(C=CC(=O)OC)cc1`, 163 to 167 °C; for `O=S(=O)(c1ccccc1)c1ccc2c(c1)[C@@H](O)[C@H](Br)CCO2` (relative stereo), 190 to 193 °C.
Next, `O=C(NCc1ccccc1)c1ccnc(NC(=O)c2cccc3ccccc23)c1`: 65 to 67 °C.
As for `OCCC1Cc2ccccc2C1O` (stereo not drawn), the melting point fell in the range of 80 to 82 °C.
For `CC(C)(C)OC(=O)NC[C@H](O)CC(=O)NN` the value was 144 °C; for `COc1ccc(C(C#N)Cc2c(Cl)cncc2Cl)c2c1OC(C)(C)C2` (stereo not drawn), 158 to 162 °C; for `Clc1ccc(-c2cnccn2)cc1`, 77 to 77.5 °C.
Next, `COc1cc(C(C)=O)ccc1OC(C)=O`: 58.7 °C.
For `CC(=O)C=CCCc1ccc(OCc2ccccc2)cc1` the value was 70 to 72 °C; for `Cn1cc(CO)c(=O)c2ccc(Cl)cc21`, 204 to 206 °C.
With `O=C(C=Cc1ccccc1)N1CCc2c([nH]c3ccccc23)C1c1ccccc1` (stereo not drawn), the melting point was 130 to 132 °C.
For `CC(=NNC(=O)C1CCCCC1)c1ccncc1` the value was 195 °C.
Next, `N#CN=C(NCC(=O)O)Nc1cccc(Cl)c1`: 109 °C.
Next, `COC(=O)C(C)c1nsc2ccc([N+](=O)[O-])cc12` (stereo not drawn): 88 to 90 °C; `O=C(O)C=CC=CCSc1ccccc1`: 108 to 110 °C.
Molecule `N#CCCNC(=O)c1cccc(-c2ccc3c(c2)C(Nc2ccc(Cl)cc2Cl)CO3)c1` (stereo not drawn) yielded a melting point of 165 to 166 °C.
Next, `CCCCc1nc(Cl)c(CO)n1Cc1ccc(-c2ccccc2-c2nnn(C(c3ccccc3)(c3ccccc3)c3ccccc3)n2)cc1`: 168 to 169 °C; `CN(CC(=O)O)C(=O)C(=O)c1cn(Cc2ccccc2)c2ccc(-c3cccc(OC(F)(F)F)c3)cc12`: 178 to 179 °C.
For `O=C1CCc2c1cccc2-c1ccccc1` the value was 85 to 90 °C; for `CN1CCN(C2=NC(=O)C(=Cc3cccc(-c4ccc(O)c(C56CC7CC(CC(C7)C5)C6)c4)c3)S2)CC1`, 291 to 294 °C; for `CCOC(=O)[C@H](Cc1ccc(Nc2nccc3ccncc23)cc1)NC1=C(Br)C(=O)C12CCCCC2`, 192 to 195 °C.
Next, `CC(C)Oc1nccc(-c2c(-c3ccc(F)cc3)ncn2C2CCC(O)CC2)n1` (stereo not drawn): 208 to 211 °C; `CCn1nc(C)c2c1C(=O)NCC(c1cccc(O)c1)=N2`: 204 °C.
For `CCOCc1nc2c(N)nc3ccccc3c2n1NCCCNC(=O)C1CCCC1`, the melting point lay in the range of 75 to 77 °C.
Next, `CNc1nc(-c2cccc(C#Cc3cccnc3)c2)c2cc(OC)c(OC)cc2n1`: 103 to 105 °C.
For `CN(C)CCNS(=O)(=O)c1cccc([N+](=O)[O-])c1C(=O)O` the value was 193 °C.
Take `Cc1cnc2c([N+](=O)[O-])ccc(Cl)c2c1Cl`: the melting point is 136 to 138 °C.
For `COc1ccc2c(Cc3c(Cl)cncc3Cl)nnc(-c3nccs3)c2c1` the value was 225 to 230 °C; for `Cc1ncc2c(n1)-c1ccc(Cl)cc1C(c1ccccc1Cl)N(C)C2` (stereo not drawn), 155 to 156 °C.
`CC(=O)NC[C@H]1CN(c2ccc3c(c2)CCSc2cn[nH]c2-3)C(=O)O1` showed a melting point of 186 to 187 °C.
For `CCNCN1CN=C(c2ccc(OC)c(OC)c2)c2cc(OC)c(OC)cc21` the value was 128 to 130 °C; for `CCCCC1(Cc2c(F)cccc2Cl)NC=C(C=O)N1` (stereo not drawn), 88 to 90 °C; for `CC1(C)Cc2sccc2C1N=CNC#N` (stereo not drawn), 118 to 119 °C.
Next, `O=[N+]([O-])c1cn(-c2cccnc2)nc1C(F)(F)F`: 121 to 123 °C; `COc1cccc(CC(=O)O)c1OCCCc1cn(-c2ccc(C(F)(F)F)cn2)nc1C(C)(C)C`: 94 to 95 °C.
The molecule `CC1NC(=O)NN=C1c1ccc2c(c1)CCC(=O)N2C` (stereo not drawn) returned a melting point of 240 to 242 °C.
For `COc1cc(OC)nc(Oc2cccc(Cl)c2C(=O)ON(C)C)n1` the value was 80 to 81 °C.
For `O=C(O)CCc1cn(Cc2cc(OCc3ccccc3)cc(OCc3csc(-c4cnccn4)n3)c2)cc1-c1ccccc1` the value was 109 to 110 °C; for `CS(=O)(=O)c1ccc(Oc2ccc3[nH]c(C4=NCC(CC(=O)N5CCOCC5)S4)cc3c2)cn1` (stereo not drawn), 168 to 169 °C; for `N#CC(=CNC1CC1)C(=O)c1cc(F)c(Cl)cc1Cl`, 94 to 95 °C.
For `Cc1cc(SCc2cnc(-c3ccc(C(F)(F)F)cc3)nc2C2CC2)ccc1OC(C)(C)C(=O)O` the value was 129 to 131 °C; for `CCn1ncc(C(=O)c2ccc(S(C)(=O)=O)c(C(=O)OC)c2C)c1O`, 150 to 152 °C.
For the molecule `CS(=O)(=O)c1ccc(-c2cc(CCO)sc2-c2ccc(F)cc2)cc1`, the melting point lay within 102 to 108 °C.
Next, `CCOc1cc(-c2ncc3[nH]c4ccc(OCc5ccccc5)cc4c3c2COC)no1`: 139 to 140 °C; `CCCc1coc2c(Cc3ccc(C(C)C)cc3)c(C)cc(C)c12`: 89 to 90 °C; `O=C1NC(=O)C(c2cccc3ccccc23)O1` (stereo not drawn): 188 to 189 °C.
As for `Oc1ccccc1N1CCC(CNC[C@H]2COc3ccc(Cl)cc3O2)CC1`, the melting point lay within 84 to 86 °C.
Next, `CCOc1cc(C(CC#N)N2Cc3c(Cl)ccc(NC(=O)C4CC4)c3C2=O)ccc1OC` (stereo not drawn): 200 to 202 °C.
`CNC(=O)N(O)Cc1cc2ccccc2s1` displayed a melting point of 160 to 161 °C.
For `Cc1ccc(C)c(OCc2ccccc2C(C#N)=NOC(F)F)c1` the value was 104 to 108 °C; for `Cc1c(O)c(=O)ccn1CCCCCO`, 136 to 138 °C.
For `Cc1cc(=O)n(-c2cc(N)c(Cl)cc2F)c(=O)n1C` the value was over 220 °C; for `O=C(CCN1CCN(c2ccc(F)cc2)CC1)c1cnn2c1CCCC2`, 141 to 142 °C.
Next, `CCCC1=C(C#N)C(c2ccccc2Cl)c2c(n[nH]c2C2CCCCC2)N1` (stereo not drawn): over 270 °C; `C[C@H](NC(=O)OC(C)(C)C)C(=O)NC1N=C(c2ccccn2)c2ccccc2N(C)C1=O` (stereo partly drawn): 228 to 229 °C.
The molecule `N#Cc1cc(F)c(-c2ncnc(C(F)(F)F)c2Cl)cc1[N+](=O)[O-]` registered a melting point of 90 to 92 °C.
Next, `O=c1[nH]nc2n1-c1ccc(N3CCCC3)nc1C(c1ccccc1Cl)=[N+]([O-])C2`: 200 °C.
Next, `COc1cc(NC(C)CCCN)c2nccc(C)c2c1Oc1cccc(C(F)(F)F)c1` (stereo not drawn): 128 to 131 °C; `Cc1cccc(C(=O)O)c1OC(=O)C=Cc1ccccc1`: 141 to 142 °C; `Cc1cc(C)cc(C(=O)N2CCC(N3CCC(NCCc4ccccc4)CC3)CC2Cc2ccccc2)c1` (stereo not drawn): 67.8 °C.
The molecule `COc1cc(C(C)=O)ccc1OCCCN1CCN(c2n[nH]c3ccccc23)CC1` returned a melting point of 155 to 157 °C.
For `O=C(O)C1Oc2cc3onc(-c4ccccc4)c3cc2O1` (stereo not drawn) the value was 202 to 204 °C; for `Cc1ccc(Cn2cc(CC(=O)O)c3cc(-c4ccc(OC(F)(F)F)cc4)ccc32)cc1`, 62 to 63 °C.
For `CC(C)(C)OC(=O)NC(CCO)C(=O)OC(c1ccccc1)c1ccccc1` (racemic) the value was 125 to 129 °C; for `COc1cc2c(cc1OC)CN(CCc1ccc(NC(=O)c3cccc4c(=O)cc(-c5ccccc5)oc34)cc1)CC2`, 135 to 140 °C; for `[N-]=[N+]=C1C(=O)Nc2c1cccc2C(F)(F)F`, 173 to 175 °C.
For `COc1cccc2c(=O)c(C(=O)C3CCCCC3)c[nH]c12` the value was 168 to 170 °C; for `CC(O)=C(C#N)C(=O)Cc1ccc(Cl)cc1`, 50 to 53 °C; for `CC(=O)c1c(-c2ccc(OCCBr)c3ccccc23)oc2ccccc12`, 115 to 117 °C.
With `CC(C)Oc1cc(-n2c(=O)c(F)c(C(F)(F)F)n(C)c2=O)c(F)cc1Cl`, the melting point was in the range of 104 to 107 °C.
For `Cc1cc(F)ccc1-c1cc(NCCNC(=O)NC2CCCCC2)nc2c1C=NC(=O)C2c1c(F)cccc1F` (stereo not drawn) the value was 178 to 183 °C; for `COc1ccc(CS(=O)(=O)c2cc3ccc(OC)cc3oc2=O)cc1`, 179 to 180 °C.
For `CCCOc1cc(OCCCc2cn(-c3ccc(C(F)(F)F)cn3)nc2OCC)ccc1CCC(=O)O` the value was 126 to 127 °C; for `CC(=O)Oc1ccc(C(=O)Nc2ccc(Cl)c(NC(=O)c3ccc(C#N)cc3)c2)cc1`, 195 to 196 °C; for `CC(=O)N1CCC(CCC(=O)c2ccc(F)cc2)CC1`, 95 to 96 °C.
For `CCOC(=O)c1[nH]c2cc3[nH]c(C)c(C(=O)OCC)c3c(C)c2c1C` the value was 216 °C.
As to `CCC1CC(C)C(=O)C=C1c1ccc(OCC(=O)O)c(Cl)c1Cl` (stereo not drawn), the melting point lay within 99 to 100 °C.
